Series [1] in a line: Cytotoxicity against mouse L929 cells assessed as reduction in cell viability. The series is classed as toxicity, cell-based.
In a further series the test system is HepG2. Description: Antiproliferative activity against human HepG2 cells assessed as reduction in cell viability after 48 hrs by MTT assay. The following applies: HepG2, 48 h. Format: functional, cell-based. Background: Tetrazolium assays rely on reduction of a dye to a coloured formazan, in cell work by metabolically active cells.
A further series deals with Leishmania mexicana. The experiment in a line: Antileishmanial activity against Leishmania mexicana amastigotes assessed as effective dose. The following applies: read-out: ED50 (the source's name).
The test system of the next series is A-431. The experiment in a line: Cytotoxicity against human A-431 cells assessed as reduction in cell viability measured after 72 hrs by MTT assay. The series is classed as functional, cell-based. The following applies: A-431, 72 h.
The test system of series [2] is RAW264.7. Description: Antiinflammatory activity in mouse RAW264.7 cells assessed as inhibition of LPS/IFNgamma-induced nitric oxide production. Format: functional.
The test system of a further series is MCF7. The experiment in a line: Cytotoxicity against human MCF7 cells assessed as reduction in cell viability measured after 72 hrs by MTT assay. Conditions: MCF7, 72 h. Format: functional, cell-based.
The subject of another series is HL-60. Description: Cytotoxicity against human HL-60 cells assessed as reduction in cell viability measured after 72 hrs by MTT assay. Format: functional, cell-based. The following applies: HL-60, 72 h.
A further series deals with T47D. Description: Cytotoxicity against human T47D cells assessed as reduction in cell viability measured after 72 hrs by MTT assay. Format: functional, cell-based.
In a further series the test system is HT-1080. Description: Cytotoxicity against human HT-1080 cells assessed as reduction in cell viability measured after 72 hrs by MTT assay. Format: functional, cell-based. Conditions: HT-1080, 72 h.
Series [3] concerns A549. Description: Cytotoxicity against human A549 cells assessed as reduction in cell viability measured after 72 hrs by MTT assay. Format: functional, cell-based. The following applies: A549, 72 h.
Series [4] in a line: Anticancer activity against human KBV cells xenografted in nude mouse assessed as reduction in tumor weight at 10 mg/kg relative to control. The series is classed as functional. More on the design: scale not given: the % may be the effect or the level left.
Series [5] can be described thus: Anticancer activity against human KBV cells assessed as cell survival rate in presence of paclitaxel.
The subject of series [6] is RAW264.7. The experiment in a line: Anti-inflammatory activity against mouse RAW264.7 cells assessed as inhibition of LPS-induced NO production. Format: functional, cell-based.
A further series has as its system Streptococcus mutans. The experiment in a line: Antibacterial activity against Streptococcus mutans ATCC 25175 assessed as reduction in microbial growth after 24 hrs by agar well diffusion assay. Format: functional. Background: A growth-free zone around the sample is the usual read-out of agar diffusion tests.
For another series, the system named is NCI-H1299. The experiment in a line: Inhibition of colony formation in human NCI-H1299 cells assessed as reduction in number of colonies measured after 24 to 48 hrs by crystal violet staining based assay. Format: functional. The following applies: time 24-48 hrs.
Series [7] relates to A549. Description: Cytotoxicity against human A549 cells assessed as reduction in cell growth incubated for 48 hrs by Alamar blue assay. Conditions: A549, 48 h. Format: functional, cell-based.
The next series deals with HeLa. Description: Antiproliferative activity against human HeLa cells assessed as reduction in cell viability measured after 72 hrs by MTT assay. The series is classed as functional, cell-based.
Series [8] in a line: Half life in rat plasma. The series is classed as ADME, cell-free.
The subject of the next series is Staphylococcus aureus. The experiment in a line: Antibacterial activity against Staphylococcus aureus KCTC 503 assessed as reduction in bacterial growth. Format: functional.
Series [9] can be described thus: Elimination rate constant in rat plasma. Format: ADME, cell-free.
A further series relates to Toxoplasma gondii. Description: Antiparasitic activity against Toxoplasma gondii infected in human HeLa cells assessed as inhibition of cell growth relative to control. Format: functional.
Series [10] in a line: Tmax in rat plasma. The series is classed as ADME, cell-free.
Series [11] has as its system A549. The experiment in a line: Inhibition of colony formation in human A549 cells measured after 24 to 48 hrs by crystal violet staining based analysis. The series is classed as functional. The following applies: time 24-48 hrs.
Series [12] concerns LoVo. The experiment in a line: Antiproliferative activity against human LoVo cells assessed as reduction in cell viability incubated for 48 hrs by MTT assay. Format: functional, cell-based.
For series [13], the system named is LoVo. Description: Antiproliferative activity against human LoVo cells assessed as reduction in cell viability incubated for 24 hrs by MTT assay. The series is classed as functional, cell-based.
In another series the test system is Enterococcus faecalis. The experiment in a line: Antibacterial activity against Enterococcus faecalis assessed as reduction in bacterial cell growth. The series is classed as functional.
In another series the test system is BT-20. Description: Cytotoxicity against human BT-20 cells assessed as reduction in cell viability incubated for 48 hrs by Alamar blue assay. The series is classed as functional, cell-based. Conditions: BT-20, 48 h. In general terms: Alamar Blue is a resazurin reagent that responds to reducing activity.
The subject of series [14] is A549. The experiment in a line: Cytotoxicity against human A549 cells assessed as reduction in cell viability measured after 24 hrs by MTT assay. Format: functional, cell-based. The following applies: A549, 24 h.
For series [15], the system named is A549. The experiment in a line: Antitumor activity against human A549 cells assessed as cell growth inhibition.

SMILES strings stand for the structures. ≈ marks a conversion by molar mass, not a printed value. Bounds are passed on as bounds.

For orientation: IC50 means the concentration that gives 50% inhibition. With `COC(=O)[C@]12CCC(C)(C)C[C@H]1C1/C(=N/O)C[C@@H]3[C@@]4(C)CC[C@H](OC(C)=O)[C@@](C)(COC(C)=O)[C@@H]4CC[C@@]3(C)[C@]1(C)CC2` (some centres undefined), the values for the IC50 (in series [1]; in the series with HepG2) were 21.2 µM and 1.88 µM, respectively.

In the case of `CC1(C)CC[C@]2(N=C=O)CC[C@]3(C)C(=CC[C@@H]4[C@@]5(C)CC[C@@H]6OC(C)(C)OC[C@@]6(C)[C@@H]5CC[C@]43C)[C@@H]2C1`, the EC50 with Leishmania mexicana stood at 0.9 µM.

As to `COC(=O)[C@]12CCC(C)(C)C[C@H]1C1=CC[C@@H]3[C@@]4(C)C=C(C#N)C(=O)[C@@](C)(CO)[C@@H]4CC[C@@]3(C)[C@]1(C)CC2`, the EC50 in the series with A-431 was determined as 1.7 µM; in the series with MCF7, 2.25 µM; in the series with HL-60, 0.548 µM; in the series on T47D, 3.91 µM; in the series with HT-1080 it was 3.03 µM; with A549 [3], 7.94 µM. Besides, the Activity in the series with RAW264.7 [2] turned out to be 1.6 µM.

For the molecule `CC(=O)OC[C@H](OC(C)=O)[C@H](OC(C)=O)[C@@H](OC(C)=O)[C@@H]1OC[C@@]2(C)[C@@H]3CC[C@]4(C)[C@H](CC=C5[C@@H]6CC(C)(C)CC[C@]6(C(=O)O)CC[C@]54C)[C@@]3(C)CC[C@@H]2O1`, the EC50 in the series with Leishmania mexicana is 7.2 µM.

Consider `CC1(C)CC[C@]2(C(=O)OCc3ccccc3)CC[C@]3(C)C(=CC[C@@H]4[C@@]5(C)Cc6nccnc6[C@@](C)(CO)[C@@H]5CC[C@]43C)[C@@H]2C1`, for which the Activity in [4] amounted to 41.88%; in series [5], 25.34%.

Turning to `C[C@]12CC[C@H](O)[C@@](C)(CO)[C@@H]1CC[C@]1(C)[C@@H]2CC=C2[C@@H]3C[C@](C)(C(=O)O)[C@@H](O)C[C@]3(C(=O)O)CC[C@]21C`, the IC50 with RAW264.7 [6] turned out to be 0.078 µM.

On to `C[C@H](O)[C@H]1OC(CC2OC[C@@]3(C)[C@@H]4CC[C@]5(C)[C@H](CC=C6[C@@H]7CC(C)(C)CC[C@]7(C(=O)O)CC[C@]65C)[C@@]4(C)CC[C@@H]3O2)[C@@H](O)[C@@H]1O` (some centres undefined), for which the EC50 in the series on Leishmania mexicana stood at 10.3 µM.

As usually defined, the MIC is the least concentration at which growth counts as inhibited. One may read the half-life as the time in which the quantity being followed falls by half. The Tmax is the time from dosing to the highest level. Take `CC1(C)CC[C@]2(C(=O)O)CC[C@]3(C)C(=CC[C@@H]4[C@@]5(C)CC[C@H](O)[C@@](C)(CO)[C@@H]5CC[C@]43C)[C@@H]2C1` [HEDERAGENIN]: the MIC worked out at 9.7 µg/mL in the series with Streptococcus mutans, 16 µg/mL (≈ 33.8 µM) in the series on Staphylococcus aureus and 128 µg/mL (≈ 271 µM) in the series with Enterococcus faecalis. For the same molecule, the INH in the series on NCI-H1299 worked out at 20 µM; with A549 [11], 10 µM. Moreover, the half-inhibitory concentration (IC50) was found to be 26.2 µM with A549 [7]; 17.4 µg/mL (≈ 36.9 µM) in the series with HeLa; 35.9 µM in the series with HepG2; 1.17 µM in the series with LoVo [12]; 1.39 µM with LoVo [13]; 11.8 µM with BT-20. Also, the IC50 with A549 [14] was more than 50 µM. Further, in [8], the half-life was 44.1 min. This molecule also registered a Kel in [9] of 0.96 h⁻¹. Moreover, in the series on Toxoplasma gondii, the “inhibition (INH)” value is listed as 64.8%. Further, in [10], the Tmax was 18.3 min. Also, the Activity in [5] was found to be 149.47%.

As for `CC1(C)CC[C@]2(C(=O)O)CC[C@]3(C)C(=CC[C@@H]4[C@@]5(C)CC[C@@H]6OC(C)(C)OC[C@@]6(C)[C@@H]5CC[C@]43C)[C@@H]2C1`, the EC50 in the series on Leishmania mexicana is 83.6 µM.

Consider `CC1(C)CC[C@]2(NC(=O)N3CCC[C@H]3C(=O)O)CC[C@]3(C)C(=CC[C@@H]4[C@@]5(C)CC[C@@H]6OC(C)(C)OC[C@@]6(C)[C@@H]5CC[C@]43C)[C@@H]2C1`, for which the EC50 in the series on Leishmania mexicana was found to be 81.1 µM.

Take `CC(=O)OC[C@@]1(C)[C@@H]2CC[C@]3(C)[C@H](CC=C4[C@@H]5CC(C)(C)CC[C@]5(NC(=O)N5CCCC5)CC[C@]43C)[C@@]2(C)CC[C@@H]1O`: in the series with Leishmania mexicana, the EC50 was found to be 10.4 µM.

Consider `CC1(C)CC[C@]2(C(=O)OCc3ccccc3)CC[C@]3(C)C(=CC[C@@H]4[C@@]5(C)CC[C@@H]6O[C@H]([C@H](OCc7ccccc7)[C@@H](OCc7ccccc7)[C@H](COCc7ccccc7)OCc7ccccc7)OC[C@@]6(C)[C@@H]5CC[C@]43C)[C@@H]2C1`, for which, in the series with Leishmania mexicana, the EC50 was 4.5 µM.

For `Cc1cncc(C(=O)OCCOC(=O)[C@]23CCC(C)(C)C[C@H]2C2=CC[C@@H]4[C@@]5(C)CC[C@H](O)[C@@](C)(CO)[C@@H]5CC[C@@]4(C)[C@]2(C)CC3)n1`, the IC50 in the series on A549 [14] worked out at 3.45 µM.

On to `COC(=O)[C@]12CCC(C)(C)C[C@H]1C1=CC[C@@H]3[C@@]4(C)CC[C@@H]5O[C@H](c6ccccc6)OC[C@@]5(C)[C@@H]4CC[C@@]3(C)[C@]1(C)CC2`, for which, in the series on Leishmania mexicana, the EC50 worked out at 2.9 µM.

Regarding `O=c1[nH]cc(F)c(=O)[nH]1` [FLUOROURACIL], in the series with HepG2, the IC50 came to 16.4 µM.

For `CC1(C)CC[C@]2(C(=O)O)CC[C@]3(C)C(=CC[C@@H]4[C@@]5(C)CC[C@@H]6O[C@H](c7ccccc7)OC[C@@]6(C)[C@@H]5CC[C@]43C)[C@@H]2C1`, in the series on Leishmania mexicana, the EC50 was 10 µM.

For the molecule `CC1(C)CC[C@]2(C(=O)O)CC[C@]3(C)C(=CC[C@@H]4[C@@]5(C)CC[C@H](O)[C@@](C)(C=O)[C@@H]5CC[C@]43C)[C@@H]2C1`, the EC50 in the series on Leishmania mexicana was determined as 9.6 µM.

Consider `CC1(C)CC[C@]2(C(=O)OCc3ccccc3)CC[C@]3(C)C(=CC[C@@H]4[C@@]5(C)CC[C@@H]6O[C@H]([C@H]7O[C@H](O)[C@H](O)[C@@H](O)[C@@H]7O)OC[C@@]6(C)[C@@H]5CC[C@]43C)[C@@H]2C1`, for which, in the series on Leishmania mexicana, the EC50 is 6 µM.

For the molecule `C[C@@H]1O[C@@H](O[C@H]2[C@H](O[C@H]3CC[C@@]4(C)[C@@H](CC[C@]5(C)[C@@H]4CC=C4[C@@H]6CC(C)(C)CC[C@]6(C(=O)O)CC[C@]45C)[C@]3(C)CO)OC[C@H](O[C@@H]3O[C@H](CO)[C@@H](O)[C@H](O)[C@H]3O)[C@@H]2O)[C@H](O)[C@H](O)[C@H]1O` [HEDERACOLCHISIDE A], the 50% inhibitory concentration (IC50) in the series with A549 [15] was 5.8 µM.

Regarding `CC1(C)CC[C@]2(NC(=O)N3CCCC3)CC[C@]3(C)C(=CC[C@@H]4[C@@]5(C)CC[C@@H]6OC(C)(C)OC[C@@]6(C)[C@@H]5CC[C@]43C)[C@@H]2C1`, the EC50 in the series with Leishmania mexicana came out at 92 µM.
